Results taken from US20090197932A1, “IMIDAZOLINYLMETHYL ARYL SULFONAMIDE” (priority 2008, published 2009).

How the values were obtained:
alpha-1A adrenoceptors = target: T1, alpha-1A adrenoceptors (Homo sapiens, UniProt P35348); assay: alpha-1A adrenoceptor partial agonist activity (intrinsic activity and pEC50)
T1 sequence (P35348 1-466): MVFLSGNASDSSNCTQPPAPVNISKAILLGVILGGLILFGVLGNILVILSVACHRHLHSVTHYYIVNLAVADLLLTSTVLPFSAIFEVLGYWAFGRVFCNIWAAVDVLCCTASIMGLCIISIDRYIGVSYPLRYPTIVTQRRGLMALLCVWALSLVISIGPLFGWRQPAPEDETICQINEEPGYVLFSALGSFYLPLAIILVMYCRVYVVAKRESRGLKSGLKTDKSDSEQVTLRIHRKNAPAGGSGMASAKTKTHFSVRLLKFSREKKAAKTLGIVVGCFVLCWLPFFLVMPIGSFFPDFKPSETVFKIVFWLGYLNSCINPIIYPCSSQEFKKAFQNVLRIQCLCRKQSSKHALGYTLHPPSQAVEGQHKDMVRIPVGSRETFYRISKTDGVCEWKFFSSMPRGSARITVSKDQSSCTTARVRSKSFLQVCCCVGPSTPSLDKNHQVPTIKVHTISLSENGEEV

[1] = test system: Female Yucatan Micro-Swine; assay: Conscious pig model: IUP, MAP and HR during infusion; format: in vivo; settings: infusion via ear vein for two hours
Method: Sling Training: Female Yucatan Micro-Swine were trained to stay in a sling for up to 4 hours. Swine were exposed to progressively longer sling durations per IACUC sling-training guideline.
Surgical Instrumentation: Female Yucatan Micro-swine were instrumented with a telemetry device with both pressure and ECG monitoring capabilities (Data Sciences International St Paul Minn.). In addition, a Bardport low profile titanium VAP was placed subcutanteously for blood sampling. All devices were implanted by the surgical veterinarian at Roche Palo Alto. Briefly, the telemetry probe body was placed subcutaneously in the cervical region. The intra-arterial pressure catheter was advanced via the superficial cervical artery into the subclavian artery for blood pressure measurement. […]
Experiment: After the swine was fully awake and stable (usually approximately 1 hour post wake up), baseline blood pressure, IUP, and heart rate parameters were determined. […]
Data Generating and Analysis Systems: Cardiovascular readings were generated by the TL11M3-D70-PCP (Data Sciences International, St. Paul, Minn.) telemetry device and associated hardware. […] IUP was monitored by a solid state catheter connected to a TA6000 Polygraph (Data Sciences International, St. Paul, Minn.). […]

[2] = test system: Female, Dutch Belted rabbits; assay: Anesthetized rabbit model: change in IUP and MAP, slope of IUP response; format: in vivo; settings: i.v.
Method: In general, IUP is the intraurethral pressure and is measured as the 2 minute mean from the first peak of the urethral response (FIG. 1). MAP is the mean arterial blood pressure and is measured as the average blood pressure during the 2 minute section where IUP is measured. The durability is the slope of the IUP response in mmHg/min and is calculated immediately after the 2 minute IUP response for 5 minutes (2-7 minutes post the first peak) for the top 3 doses.
Surgery: Female, Dutch Belted rabbits (1.20-2.0 kg, Myrtle's Rabbitry, Tenn.) were anesthetized with isoflurane (3.0% at 2 to 4 L/min) and urethane (1.5 grams/kg, s.c.). In preparation for surgery, the rabbits were shaved, scrubbed (i.e., perineal area, ventral neck, and ventral, caudal surface of the abdomen) and were administered Ringers Lactate Solution (s.c.) to maintain fluids. […]
Experiment: The arterial cannula was connected to a P23XL, pressure transducer (Grass Technologies, West Warwick, R.I.) and the arterial pressure transducer and Unisensor urethral transducer catheter were connected to an Gould 13-6615-50 amplifier (Data Sciences International, St. Paul, Minn.) and Gould TA6000 recorder (Data Sciences International, St. Paul, Minn.) in parallel. All data was analyzed using Power Lab Chart version 5.0.2 (ADInstruments, Colorado Springs, Colo.) data acquisition system. […]
Measurements: The change in IUP and MAP from baseline were measured as well as the slope of the IUP response. MAP was first calculated according to the following formula, where Pd is diastolic pressure and Ps is systolic pressure: MAP=Pd+1/3(Ps−Pd). Pre-dose baseline values for IUP and MAP were assessed during a 2 min period just prior to vehicle or test compound administration. Post-dose values for IUP or MAP were determined during a 2 min period at the first peak in the IUP tracing following vehicle or test compound administration. The change in IUP and MAP induced by vehicle or test compound were then calculated by subtracting the pre-dose value from the post-dose value. […]

intrinsic activity, or efficacy, as a partial agonist (alpha-1A adrenoceptors; ideally between 0.35 to 0.60): 0.38 | EC50 (alpha-1A adrenoceptors; read-out: affinity, or pEC50 value (converted)): 251 nM | maximum increase in MAP [2]: 9.75 mmHg
SMILES: CS(=O)(=O)Nc1ccc(CC2=NCCN2)c(Br)c1Cl [Formula I, N-[3-Bromo-2-chloro-4-(4,5-dihydro-1H-imidazol-2-ylmethyl)-phenyl]-methanesulfonamide]
IUP durability [1]: exceptional IUP durability | selectivity for enhancement of intraurethral pressure (IUP) over blood pressure (MAP) ([2]; at the 10 mmHg change in IUP level (ED10 of MAP/ED10 of IUP)): 38 fold | durability of IUP response over time ([2]; slope of IUP response 2-7 minutes post the first peak, top 3 doses): increased durability of IUP response over time
